Reference: patent US12122816B2, “Long acting peptide tyrosine tyrosine (PYY) analogs and methods of use” (Intarcia Therapeutics, Inc., priority 2020, dated 2024)
Starred links: 1 amine or outer side, 2 acyl side, 3 side chain; linkers in the order of their positions; H or OH if unused. Non-standard residues stand in square brackets, D forms with d. Residues, ends and D or L forms follow the SMILES beside them. Groups on a side chain read outwards from the residue. *: point of attachment. C20 diacid = O=C(O)CCCCCCCCCCCCCCCCCCC(=O)*; γGlu = O=C(O)[C@H](CCC(=O)[*:2])N[*:1]; NMeY = CN[C@@H](Cc1ccc(O)cc1)C(=O)O

Key:
Assay in all cases: NPY receptor functional assay (cAMP, HEK-CNG cells, ACTOne membrane potential dye)
Assay type in all cases: cell-based
human Y2 receptor = molecular target: T1, human Y2 receptor (Homo sapiens, UniProt P49146); conditions: NPY2R pEC50, HEK-CNG cells; standard PYY(3-36); species (human or rat) not given
T1 sequence (P49146 1-381): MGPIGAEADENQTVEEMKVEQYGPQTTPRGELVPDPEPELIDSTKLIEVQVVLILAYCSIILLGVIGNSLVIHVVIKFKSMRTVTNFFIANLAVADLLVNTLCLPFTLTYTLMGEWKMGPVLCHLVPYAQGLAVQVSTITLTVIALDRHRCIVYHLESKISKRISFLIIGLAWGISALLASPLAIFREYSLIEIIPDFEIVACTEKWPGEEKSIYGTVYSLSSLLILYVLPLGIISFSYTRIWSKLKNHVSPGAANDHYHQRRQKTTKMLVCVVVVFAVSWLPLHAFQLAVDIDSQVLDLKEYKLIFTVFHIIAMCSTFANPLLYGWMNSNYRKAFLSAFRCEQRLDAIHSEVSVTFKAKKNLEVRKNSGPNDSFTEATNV
Description: (§1) The NPY family of G-protein coupled receptors include Y1, Y2, Y4, and Y5 in humans and rats. […] Following agonist binding, the receptor-G protein complex activates a downstream intracellular signaling cascade which leads to inhibition of adenylate cyclase and a reduction in intracellular cAMP levels.
(§2) HEK-CNG cells stably expressing the human or rat Y1, Y2, Y4 or Y5 receptors (Codex Biosolutions) were used to characterize the functional potency of peptide agonists using the ActOne™ membrane potential dye kit (Codex Biosolutions). In addition to each NPY receptor, each cell line encodes a proprietary exogenous Cyclic Nucleotide-Gated (CNG) channel (Codex Biosolutions). The channel is activated by elevated intracellular levels of cAMP, resulting in ion flux and cell membrane depolarization which can be detected with a calcium sensitive dye or fluorescent membrane potential (MP) dye. Cells were carried in growth media containing 90% DMEM, 10% FBS, 250 mcg/mL G418 and 1 mcg/mL puromycin for no more than 15 passages.
(§3) Prior to testing, cells were counted and dispensed at 14,000 cells per well (Y1, Y4 and Y5) or 28,000 cells per well (Y2) into black 384 well Poly-D-Lysine plates at 20 mcL per well. Covered plates were then incubated at room temperature for 30 minutes followed by an overnight incubation at 37° C. in 5% C02. The following day, media was removed and wells were washed once with 40 mcL Dulbecco's phosphate buffered saline. […] Ten microliters of experimental peptide or peptide standard was added in triplicate to wells and incubated for 50 minutes at room temperature in the dark. Following this incubation step, plates were read again as before (final read).
(§4) NPY receptor activation, leading to a reduction in intracellular cAMP levels, is detected as a decrease in isoproteranol induced fluorescent signal. Peptide standard and experimental values were initially transformed in excel using the formula: final read/initial read. Transformed values were then normalized to receptor specific standard values (1×10−13 M minimum and 1×10−7 M maximum) using the formula: (test value−standard minavg)/(standard maxavg−standard minavg)*100. […] Normalized data was analyzed from triplicate tests and used to estimate the EC50 for each test peptide on each receptor. Data was fit in GraphPad Prism software (v8.2.1) using a 3-parameter logistic curve model: Y=Bottom+(Top−Bottom)/(1+10^((LogEC50−X))). EC50 values were converted to pEC50 values using the formula: pEC50=−Log(EC50).

human Y5 receptor = molecular target: T2, human Y5 receptor (Homo sapiens, UniProt Q15761); conditions: NPY5R pEC50, HEK-CNG cells; standard NPY; species (human or rat) not given
T2 sequence (Q15761 1-445): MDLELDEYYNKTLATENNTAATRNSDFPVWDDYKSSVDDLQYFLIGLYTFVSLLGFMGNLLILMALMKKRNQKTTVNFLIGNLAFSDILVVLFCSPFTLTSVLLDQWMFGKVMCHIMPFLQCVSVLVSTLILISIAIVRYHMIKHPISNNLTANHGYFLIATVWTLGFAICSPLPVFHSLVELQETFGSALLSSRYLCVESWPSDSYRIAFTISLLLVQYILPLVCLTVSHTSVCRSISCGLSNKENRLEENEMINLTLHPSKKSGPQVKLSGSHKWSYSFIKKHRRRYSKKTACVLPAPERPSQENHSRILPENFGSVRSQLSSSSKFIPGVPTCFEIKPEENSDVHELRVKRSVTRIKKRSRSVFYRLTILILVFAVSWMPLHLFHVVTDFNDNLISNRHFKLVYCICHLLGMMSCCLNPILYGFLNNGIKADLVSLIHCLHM
Description: as §1, §2, §3, §4

human Y4 receptor = human Y4 receptor (Homo sapiens, UniProt P50391); conditions: standard PP, species (human or rat) not given
Description: as §1, §2, §3, §4

Sequence of human Y4 receptor (P50391 whole entry): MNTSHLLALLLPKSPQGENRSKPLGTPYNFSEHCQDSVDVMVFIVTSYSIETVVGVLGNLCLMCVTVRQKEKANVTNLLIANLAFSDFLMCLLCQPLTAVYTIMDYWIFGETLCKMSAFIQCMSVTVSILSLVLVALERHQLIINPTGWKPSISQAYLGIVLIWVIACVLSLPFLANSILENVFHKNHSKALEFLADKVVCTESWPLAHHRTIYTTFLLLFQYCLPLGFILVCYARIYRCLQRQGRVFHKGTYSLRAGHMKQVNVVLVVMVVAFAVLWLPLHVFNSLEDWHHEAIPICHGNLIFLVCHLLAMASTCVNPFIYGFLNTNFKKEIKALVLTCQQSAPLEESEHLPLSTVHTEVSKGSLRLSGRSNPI

Compound | EC50 (human Y2 receptor) | EC50 (human Y5 receptor) | NPY4R pEC50 (human Y4 receptor)
CC(C)C[C@H](NC(=O)[C@H](Cc1ccc(O)cc1)NC(=O)[C@H](Cc1c[nH]cn1)NC(=O)[C@H](CCCNC(=N)N)NC(=O)[C@H](C)NC(=O)[C@H](CC(=O)O)NC(=O)[C@H](C)NC(=O)[C@H](Cc1ccc(O)cc1)NC(=O)[C@H](Cc1ccc(O)cc1)NC(=O)[C@H](CCCNC(=N)N)NC(=O)[C@H](CC(N)=O)NC(=O)[C@H](Cc1c[nH]c2ccccc12)NC(=O)[C@H](CCC(=O)O)NC(=O)[C@H](CCC(=O)O)NC(=O)[C@@H]1CCCN1C(=O)[C@H](CO)NC(=O)[C@H](C)NC(=O)[C@H](CC(=O)O)NC(=O)[C@H](CCCCN)NC(=O)CNC(=O)[C@@H]1CCCN1C(=O)[C@H](C)NC(=O)[C@H](CCC(=O)O)NC(=O)[C@@H]1CCCN1C(=O)[C@H](CCCCN)NC(=O)[C@@H]1CCCN1C(=O)[C@@H](N)CCCCNC(=O)CC[C@H](NC(=O)CC[C@H](NC(=O)CCCCCCCCCCCCCCCCCCC(=O)O)C(=O)O)C(=O)O)C(=O)N[C@@H](CC(N)=O)C(=O)N[C@@H](Cc1c[nH]c2ccccc12)C(=O)N[C@@H](CC(C)C)C(=O)N[C@H](C(=O)N[C@@H](CCCNC(=N)N)C(=O)N[C@@H](CCC(N)=O)C(=O)N[C@@H](CCCNC(=N)N)C(=O)N(C)[C@@H](Cc1ccc(O)cc1)C(N)=O)[C@@H](C)O [Compound A4] (H-K([γGlu-γGlu-C20 diacid])PKPEAPGKDASPEEWNRYYADARHYLNWLTRQR[NMeY]-NH2; N-terminus assumed) | 2 nM | 50.1 nM | inactive
CC(C)C[C@H](NC(=O)[C@H](Cc1ccc(O)cc1)NC(=O)[C@H](Cc1c[nH]cn1)NC(=O)[C@H](CCCNC(=N)N)NC(=O)[C@H](C)NC(=O)[C@H](CC(=O)O)NC(=O)[C@H](C)NC(=O)[C@H](Cc1ccc(O)cc1)NC(=O)[C@H](Cc1ccc(O)cc1)NC(=O)[C@H](CCCNC(=N)N)NC(=O)[C@H](CC(N)=O)NC(=O)[C@H](Cc1c[nH]c2ccccc12)NC(=O)[C@H](CCC(=O)O)NC(=O)[C@H](CCC(=O)O)NC(=O)[C@@H]1CCCN1C(=O)[C@H](CO)NC(=O)[C@H](C)NC(=O)[C@H](CC(=O)O)NC(=O)[C@H](CCCCN)NC(=O)CNC(=O)[C@@H]1CCCN1C(=O)[C@H](C)NC(=O)[C@H](CCC(=O)O)NC(=O)[C@@H]1CCCN1C(=O)[C@H](CCCCNC(=O)CC[C@H](NC(=O)CC[C@H](NC(=O)CCCCCCCCCCCCCCCCCCC(=O)O)C(=O)O)C(=O)O)NC(=O)[C@@H]1CCCN1)C(=O)N[C@@H](CC(N)=O)C(=O)N[C@@H](Cc1c[nH]c2ccccc12)C(=O)N[C@@H](CC(C)C)C(=O)N[C@H](C(=O)N[C@@H](CCCNC(=N)N)C(=O)N[C@@H](CCC(N)=O)C(=O)N[C@@H](CCCNC(=N)N)C(=O)N(C)[C@@H](Cc1ccc(O)cc1)C(N)=O)[C@@H](C)O [Compound A5] | 20 nM | 10 nM | inactive
CC(C)C[C@H](NC(=O)[C@H](Cc1ccc(O)cc1)NC(=O)[C@H](Cc1c[nH]cn1)NC(=O)[C@H](CCCNC(=N)N)NC(=O)[C@H](C)NC(=O)[C@H](CC(=O)O)NC(=O)[C@H](C)NC(=O)[C@H](Cc1ccc(O)cc1)NC(=O)[C@H](Cc1ccc(O)cc1)NC(=O)[C@H](CCCNC(=N)N)NC(=O)[C@H](CC(N)=O)NC(=O)[C@H](Cc1c[nH]c2ccccc12)NC(=O)[C@H](CCC(=O)O)NC(=O)[C@H](CCC(=O)O)NC(=O)[C@@H]1CCCN1C(=O)[C@H](CO)NC(=O)[C@H](C)NC(=O)[C@H](CC(=O)O)NC(=O)[C@H](CCCCN)NC(=O)CNC(=O)[C@@H]1CCCN1C(=O)[C@H](C)NC(=O)[C@H](CCCCNC(=O)CC[C@H](NC(=O)CC[C@H](NC(=O)CCCCCCCCCCCCCCCCCCC(=O)O)C(=O)O)C(=O)O)NC(=O)[C@@H]1CCCN1C(=O)[C@H](CCCCN)NC(=O)[C@@H]1CCCN1)C(=O)N[C@@H](CC(N)=O)C(=O)N[C@@H](Cc1c[nH]c2ccccc12)C(=O)N[C@@H](CC(C)C)C(=O)N[C@H](C(=O)N[C@@H](CCCNC(=N)N)C(=O)N[C@@H](CCC(N)=O)C(=O)N[C@@H](CCCNC(=N)N)C(=O)N(C)[C@@H](Cc1ccc(O)cc1)C(N)=O)[C@@H](C)O [Compound A6] | 1.26 nM | 20 nM | inactive
CC(C)C[C@H](NC(=O)[C@H](Cc1ccc(O)cc1)NC(=O)[C@H](Cc1c[nH]cn1)NC(=O)[C@H](CCCNC(=N)N)NC(=O)[C@H](C)NC(=O)[C@H](CC(=O)O)NC(=O)[C@H](C)NC(=O)[C@H](Cc1ccc(O)cc1)NC(=O)[C@H](Cc1ccc(O)cc1)NC(=O)[C@H](CCCNC(=N)N)NC(=O)[C@H](CC(N)=O)NC(=O)[C@H](Cc1c[nH]c2ccccc12)NC(=O)[C@H](CCC(=O)O)NC(=O)[C@H](CCCCNC(=O)CC[C@H](NC(=O)CC[C@H](NC(=O)CCCCCCCCCCCCCCCCCCC(=O)O)C(=O)O)C(=O)O)NC(=O)[C@@H]1CCCN1C(=O)[C@H](CO)NC(=O)[C@H](C)NC(=O)[C@H](CC(=O)O)NC(=O)[C@H](CCCCN)NC(=O)CNC(=O)[C@@H]1CCCN1C(=O)[C@H](C)NC(=O)[C@H](CCC(=O)O)NC(=O)[C@@H]1CCCN1C(=O)[C@H](CCCCN)NC(=O)[C@@H]1CCCN1)C(=O)N[C@@H](CC(N)=O)C(=O)N[C@@H](Cc1c[nH]c2ccccc12)C(=O)N[C@@H](CC(C)C)C(=O)N[C@H](C(=O)N[C@@H](CCCNC(=N)N)C(=O)N[C@@H](CCC(N)=O)C(=O)N[C@@H](CCCNC(=N)N)C(=O)N(C)[C@@H](Cc1ccc(O)cc1)C(N)=O)[C@@H](C)O [Compound A8] | 0.251 nM | 79.4 nM | inactive
CC(C)C[C@H](NC(=O)[C@H](CC(=O)O)NC(=O)[C@H](C)NC(=O)[C@H](Cc1ccc(O)cc1)NC(=O)[C@H](Cc1ccc(O)cc1)NC(=O)[C@H](CCCNC(=N)N)NC(=O)[C@H](CC(N)=O)NC(=O)[C@H](Cc1c[nH]c2ccccc12)NC(=O)[C@H](CCC(=O)O)NC(=O)[C@H](CCC(=O)O)NC(=O)[C@@H]1CCCN1C(=O)[C@H](CO)NC(=O)[C@H](C)NC(=O)[C@H](CC(=O)O)NC(=O)[C@H](CCCCN)NC(=O)CNC(=O)[C@@H]1CCCN1C(=O)[C@H](C)NC(=O)[C@H](CCC(=O)O)NC(=O)[C@@H]1CCCN1C(=O)[C@H](CCCCN)NC(=O)[C@@H]1CCCN1)C(=O)N[C@@H](CCCNC(=N)N)C(=O)N[C@@H](Cc1c[nH]cn1)C(=O)N[C@@H](CCCCNC(=O)CC[C@H](NC(=O)CC[C@H](NC(=O)CCCCCCCCCCCCCCCCCCC(=O)O)C(=O)O)C(=O)O)C(=O)N[C@@H](CC(C)C)C(=O)N[C@@H](CC(N)=O)C(=O)N[C@@H](Cc1c[nH]c2ccccc12)C(=O)N[C@@H](CC(C)C)C(=O)N[C@H](C(=O)N[C@@H](CCCNC(=N)N)C(=O)N[C@@H](CCC(N)=O)C(=O)N[C@@H](CCCNC(=N)N)C(=O)N[C@@H](Cc1ccccc1)C(N)=O)[C@@H](C)O [Compound A52] | 3.98 nM | 10 nM | inactive
